Measurements reported in ChEMBL document CHEMBL2424594, “Contributions of academic laboratories to the discovery and development of chemical biology tools” (J Med Chem, 2013).

How the values were obtained:
[1] = species: Homo sapiens; assay: Selectivity ratio of Ki for CB1 receptor (unknown origin) to Ki for CB2 receptor (unknown origin)
[2] = biological target: Cannabinoid receptor 2 (Homo sapiens, UniProt P34972); assay: Binding affinity to CB2 receptor (unknown origin)
[3] = biological target: Cannabinoid receptor 1 (Homo sapiens, UniProt P21554); assay: Binding affinity to CB1 receptor (unknown origin)
Sequence of Cannabinoid receptor 1 (P21554 whole entry): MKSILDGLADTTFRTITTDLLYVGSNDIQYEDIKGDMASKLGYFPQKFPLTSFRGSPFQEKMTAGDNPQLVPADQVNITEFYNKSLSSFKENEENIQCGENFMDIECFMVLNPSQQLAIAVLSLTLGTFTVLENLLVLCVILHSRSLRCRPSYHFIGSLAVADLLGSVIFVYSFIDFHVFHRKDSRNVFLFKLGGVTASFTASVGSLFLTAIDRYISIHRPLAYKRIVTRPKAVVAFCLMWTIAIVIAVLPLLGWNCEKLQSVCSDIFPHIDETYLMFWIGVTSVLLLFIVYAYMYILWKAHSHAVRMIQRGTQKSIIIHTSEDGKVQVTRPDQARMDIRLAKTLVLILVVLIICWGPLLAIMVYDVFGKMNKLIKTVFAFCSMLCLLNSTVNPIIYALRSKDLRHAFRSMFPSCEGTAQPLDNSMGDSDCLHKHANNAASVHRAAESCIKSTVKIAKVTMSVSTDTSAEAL

Sequence of Cannabinoid receptor 2 (P34972 whole entry): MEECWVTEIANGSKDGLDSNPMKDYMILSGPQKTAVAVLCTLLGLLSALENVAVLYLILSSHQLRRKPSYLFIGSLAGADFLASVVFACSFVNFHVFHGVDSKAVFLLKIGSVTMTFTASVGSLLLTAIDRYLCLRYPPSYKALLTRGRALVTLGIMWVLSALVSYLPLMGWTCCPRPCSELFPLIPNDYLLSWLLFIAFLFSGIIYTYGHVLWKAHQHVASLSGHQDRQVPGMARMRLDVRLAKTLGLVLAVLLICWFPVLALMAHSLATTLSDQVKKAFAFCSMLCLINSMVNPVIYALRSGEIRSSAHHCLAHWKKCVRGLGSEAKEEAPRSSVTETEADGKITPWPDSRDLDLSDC

Structure (SMILES) | Ratio Ki [1] | Ki [2] | Ki [3]
CCCn1cc(C(=O)c2ccc(C)c3ccccc23)c2ccccc21 | 173 | – | –
CN1CCCCC1Cn1cc(C(=O)c2cc([N+](=O)[O-])ccc2I)c2ccccc21 (racemic) | 82 | 3.4 nM | 280 nM
